Test results published in patent US5583142A, “Analgesic and nootropic drugs” (priority 1992, dated 1996).
Values joined by “and” are separate entries in the source; they are usually repeats but may differ in a detail not shown here. Equal entries are not always repeated. Structures can show the parent of a compound that is named as a salt. Where two headings read alike, the source gives them in different places.

Columns and labels:
in vivo = details: mouse
Text: (§1) Potency, efficacy and toxicity of SM21, PG9 and SM32 in comparison with
(§2) four principal reference analgesic drugs tested in mouse. As analgesic

[1] = mouse rota-rod test (16 r.p.m.)
Text: All products tested to detect their antinociceptive activity had been previously tested by the rota-rod test to determine their maximum utilizable dose in analgesic tests. In fact, by this test it is possible to determine the highest dose of drug not impairing the normal performance of animals in a test that simultaneously evaluates motor coordination, equilibrium, resistance to fatigue, and muscle strength. This test is meant to evaluate the capability of mice to stay balanced on a rotating rod [cf. Vaught et al., Neuropharmacology, 24 (3) 211-216 (1985)].
The calculated doses were those used in the two analgesic tests on mice.

rat tail-flick test = assay type: in vivo
Method: (§3) The analgesic action was detected in mouse, rat, guinea pig and dog. The mouse was subjected to hot plate and writhing tests; the rat to tail-flick and paw-pressure tests; the guinea pig to paw-pressure test only; the dog to the test described by Vainio et al. [J. Vet. Pharmacol. Ther., 12, 225-231 (1989)] using an electric stimulation. Consequently, the claimed compounds were tested with pain being induced by stimuli of different nature: thermal (hot plate and tail flick), chemical (writhing by acetic acid), mechanical (paw pressure) and electrical (cutaneous stimulation).
(§4) As already mentioned, the claimed products were assayed also in rat by the paw-pressure and tail-flick tests.
(§5) Both tests were carried out with the max. doses not impairing the rats normal behaviour. […] The painful stimulus utilized in the paw-pressure test involved the animal consciousness to a much greater extent than the stimulus used in the tail-flick test, in fact, the type and anatomic localization of the latter mainly involved a spinal response.
(§6) Both tests on rats were carried out with the max. doses not altering the behaviour of the treated animals.
The test was performed using th

[2] = assay type: in vivo, mouse
Method: as §3, §1, §2

[3] = mouse acetic acid writhing test; assay type: in vivo; details: for efficacy in writhing test, in words / number of writhes / Efficacy as analgesic (Morphine = 100) / percent inhibition: mouse; for Efficacy as analgesic (Morphine = 100) / percent inhibition: writhing; for ED50: mouse writhing
Method: as §3
The claimed molecules, chosen as examples, were also assayed in mice by the writhing test (Table 4). The test is meant to evaluate the products capability to prevent mice writhes ensuing abdominal pains caused by i.p. injection of a 0.6% aqueous solution of acetic acid.
Acetic acid solution = 0.6% v/v.

rat paw-pressure test = assay type: in vivo
Method: as §3, §4, §5, §6

[4] = 45 mg/kg s.c., 15 min after treatment
[5] = 45 mg/kg s.c., 30 min after treatment
[6] = 45 mg/kg s.c., 45 min after treatment
[7] = 50 mg/kg s.c., 15 min after treatment
[8] = 50 mg/kg s.c., 30 min after treatment
[9] = 50 mg/kg s.c., 45 min after treatment
[10] = 25 mg/kg i.p., 15 min after treatment
[11] = 25 mg/kg i.p., 30 min after treatment
[12] = 25 mg/kg i.p., 45 min after treatment
[13] = 20 mg/kg i.p., 15 min after treatment
[14] = 20 mg/kg i.p., 30 min after treatment
[15] = 20 mg/kg i.p., 45 min after treatment
[16] = 100 mg/kg i.p., 15 min after treatment
[17] = 100 mg/kg i.p., 30 min after treatment
[18] = 100 mg/kg i.p., 45 min after treatment

For `CN(C)CCCN1c2ccccc2CCc2ccc(Cl)cc21` [Clomipramine HCl, reference compound], the LD50 (in vivo; iv) was 44 mg/kg and 125 µmol/kg, the “rota-rod performance (number of falls in 30 s)” value (“rota-rod performance” for short) ([1]; 25 mg/kg s.c., 15 min after treatment) was 2.4 ± 0.5 falls in 30 s and the “rota-rod performance” value ([1]; 25 mg/kg s.c., 30 min after treatment) was 2.1 ± 0.6 falls in 30 s. The “rota-rod performance” value ([1]; 25 mg/kg s.c., 45 min after treatment) was 2.1 ± 0.6 falls in 30 s, the “rota-rod performance” value [1, 4] was 2.8 ± 0.4 falls in 30 s and the “rota-rod performance” value [1, 5] was 3.6 ± 0.4 falls in 30 s. For the same compound, the “rota-rod performance” value [1, 6] was 3.5 ± 0.6 falls in 30 s, the “rota-rod performance” value [1, 7] was 1.8 ± 0.4 falls in 30 s and the “rota-rod performance” value [1, 8] was 1.8 ± 0.4 falls in 30 s. For the same compound, the “rota-rod performance” value [1, 9] was 1.5 ± 0.4 falls in 30 s, the “rota-rod performance” value ([1]; 60 mg/kg s.c., 15 min after treatment) was 1.5 ± 0.4 falls in 30 s and the “rota-rod performance” value ([1]; 60 mg/kg s.c., 30 min after treatment) was 2.6 ± 0.3 falls in 30 s. For the same compound, the “rota-rod performance” value ([1]; 60 mg/kg s.c., 45 min after treatment) was 3.1 ± 0.5 falls in 30 s, the NOAEL ([1]; mouse, in vivo, sc) was 20.2 mg/kg and the “activity in tail-flick test, in words” value (rat tail-flick test) was “inactive”. The tail-flick (rat tail-flick test; [10]) was 2.9 ± 0.2 s, the tail-flick (rat tail-flick test; [11]) was 2.6 ± 0.1 s and the tail-flick (rat tail-flick test; [12]) was 2.6 ± 0.2 s. The “ED50 compared with claimed compounds” value ([2]; mouse hot plate) was “equivalent to those of the claimed compounds”, the “analgesic efficacy / degree of analgesia compared with claimed compounds” value ([2]; mouse hot plate) was “much lower degree of analgesia” and the “Efficacy as analgesic (Morphine = 100), AUC (Area Under Curve)” value (shortened to “Efficacy as analgesic … (Area Under Curve)”) ([2]; mouse, in vivo) was 17. For the same compound, the “Efficacy as analgesic (Morphine = 100), M.E. (Maximum Analgesic Effect)” value (“Efficacy … (Maximum Analgesic Effect)” below) ([2]; mouse, in vivo) was 19, the hot-plate latency ([2]; mouse, 20 mg/kg i.p., 15 min after treatment) was 24.8 ± 2.8 s and the hot-plate latency ([2]; mouse, 20 mg/kg i.p., 30 min after treatment) was 25.2 ± 2.2 s. For the same compound, the hot-plate latency ([2]; mouse, 20 mg/kg i.p., 45 min after treatment) was 23.2 ± 2.1 s, the hot-plate latency ([2]; mouse, 20 mg/kg s.c., 15 min after treatment) was 17.4 ± 1.1 s and the hot-plate latency ([2]; mouse, 20 mg/kg s.c., 30 min after treatment) was 19.3 ± 0.9 s. For the same compound, the hot-plate latency ([2]; mouse, 20 mg/kg s.c., 45 min after treatment) was 16.5 ± 0.8 s, the “efficacy in writhing test, in words” value [3] was “far less efficacious” and the number of writhes ([3]; 20 mg/kg s.c.) was 18.2 ± 2.1. For the same compound, the “Efficacy as analgesic (Morphine = 100)” value ([3]; 20 mg/kg s.c.) was 63, the percent inhibition ([3]; 20 mg/kg s.c.) was 46.8% and the ED50 ([3]; sc) was 9.7 mg/kg and 27.6 µmol/kg. For the same compound, the “activity in paw-pressure test, in words” value (rat paw-pressure test) was “almost equivalent analgesia”, the paw-pressure (rat paw-pressure test; [10]) was 85.0 ± 6.8 g and the paw-pressure (rat paw-pressure test; [11]) was 99.0 ± 6.6 g. It also gave a paw-pressure (rat paw-pressure test; [12]) of 91.7 ± 7.4 g.
In the case of `CCC(Sc1ccccc1)C(=O)O[C@H]1C[C@H]2CC[C@@H](C1)N2C` (stereo partly drawn) [SM-32, 3α-Tropanyl 2-(phenylthio)-butyrate], the LD50 (in vivo; sc) is reported as 584 µmol/kg, the “rota-rod performance” value ([1]; 40 mg/kg s.c., 15 min after treatment) is reported as 1.2 ± 0.6 falls in 30 s and the “rota-rod performance” value ([1]; 40 mg/kg s.c., 30 min after treatment) is reported as 1.4 ± 0.3 falls in 30 s. The “rota-rod performance” value ([1]; 40 mg/kg s.c., 45 min after treatment) was 1.2 ± 0.4 falls in 30 s, the “rota-rod performance” value [1, 4] was 2.0 ± 0.3 falls in 30 s and the “rota-rod performance” value [1, 5] was 2.3 ± 0.3 falls in 30 s. The “rota-rod performance” value [1, 6] was 2.0 ± 0.5 falls in 30 s, the “rota-rod performance” value [1, 7] was 1.8 ± 0.4 falls in 30 s and the “rota-rod performance” value [1, 8] was 2.6 ± 0.6 falls in 30 s. The “rota-rod performance” value [1, 9] was 2.6 ± 0.5 falls in 30 s, the “activity in tail-flick test, in words” value (rat tail-flick test) was “active” and the tail-flick (rat tail-flick test; [13]) was 3.1 ± 0.5 s. For the same compound, the tail-flick (rat tail-flick test; [14]) was 4.7 ± 0.6 s, the tail-flick (rat tail-flick test; [15]) was 4.3 ± 0.5 s and the “ANALGESIC ACTIVITY (degree of analgesia, latency on hot plate)” value ([2]; max. dose not affecting mice behaviour) was “++++ (Latency above 35" ++++-)”. The “analgesic effect (AUC up to 45 min) compared with reference compounds” value ([2]; mouse hot plate, FIG. 5, s.c.) was “more active than the reference compounds”, the “Efficacy as analgesic … (Area Under Curve)” value ([2]; mouse, in vivo) was 120 and the “Efficacy … (Maximum Analgesic Effect)” value ([2]; mouse, in vivo) was 107. The “analgesic effect (AUC up to 45 min) compared with morphine” value ([2]; mouse, in vivo, ip) was “only slightly less active than morphine”, the hot-plate latency ([2]; mouse, 35 mg/kg i.p., 15 min after treatment) was 35.5 ± 3.0 s and the hot-plate latency ([2]; mouse, 35 mg/kg i.p., 30 min after treatment) was 33.5 ± 2.6 s. The hot-plate latency ([2]; mouse, 35 mg/kg i.p., 45 min after treatment) was 24.4 ± 1.9 s, the hot-plate latency ([2]; mouse, 35 mg/kg s.c., 15 min after treatment) was 38.7 ± 3.5 s and the hot-plate latency ([2]; mouse, 35 mg/kg s.c., 30 min after treatment) was 36.4 ± 3.2 s. The hot-plate latency ([2]; mouse, 35 mg/kg s.c., 45 min after treatment) was 25.7 ± 2.9 s, the “efficacy in writhing test, in words” value [3] was “less efficacious than ketorolac, are more efficacious than morphine” and the number of writhes ([3]; 35 mg/kg s.c.) was 5.5 ± 2.1. The “Efficacy as analgesic (Morphine = 100)” value ([3]; 35 mg/kg s.c.) was 111, the percent inhibition ([3]; 35 mg/kg s.c.) was 83.4% and the ED50 ([3]; sc) was 15.9 mg/kg and 35.7 µmol/kg. For the same compound, the “activity in paw-pressure test, in words” value (rat paw-pressure test) was “almost equivalent analgesia”, the paw-pressure (rat paw-pressure test; [13]) was 86.2 ± 4.0 g and the paw-pressure (rat paw-pressure test; [14]) was 92.0 ± 6.1 g. The paw-pressure (rat paw-pressure test; [15]) was 69.0 ± 4.8 g.
For `O=C(c1ccccc1)c1ccc2n1CCC2C(=O)O` (stereo not shown) [Ketorolac Trometamine], the LD50 (in vivo; ip) was 1260 µmol/kg, the “activity in tail-flick test, in words” value (rat tail-flick test) was “inactive” and the tail-flick (rat tail-flick test; [16]) was 3.3 ± 0.2 s. The tail-flick (rat tail-flick test; [17]) was 3.2 ± 0.2 s, the tail-flick (rat tail-flick test; [18]) was 2.6 ± 0.3 s and the “Efficacy as analgesic … (Area Under Curve)” value ([2]; mouse, in vivo) was 46. The “Efficacy … (Maximum Analgesic Effect)” value ([2]; mouse, in vivo) was 55, the hot-plate latency ([2]; mouse, 175 mg/kg i.p., 15 min after treatment) was 26.5 ± 3.4 s and the hot-plate latency ([2]; mouse, 175 mg/kg i.p., 30 min after treatment) was 19.6 ± 1.4 s. It also gave a hot-plate latency ([2]; mouse, 175 mg/kg i.p., 45 min after treatment) of 17.7 ± 1.5 s, a hot-plate latency ([2]; mouse, 175 mg/kg s.c., 15 min after treatment) of 16.3 ± 1.1 s and a hot-plate latency ([2]; mouse, 175 mg/kg s.c., 30 min after treatment) of 15.0 ± 1.2 s. The hot-plate latency ([2]; mouse, 175 mg/kg s.c., 45 min after treatment) was 15.1 ± 1.6 s, the “activity on hot plate, s.c. administration” value ([2]; mouse, s.c.) was “inactive” and the ED50 ([3]; ip) was 8.3 mg/kg and 22 µmol/kg. The “efficacy in writhing test, in words” value [3] was “higher than by morphine”, the number of writhes ([3]; 10 mg/kg i.p.) was 6.3 ± 1.4 and the number of writhes ([3]; 175 mg/kg i.p.) was 0.3 ± 0.3. For the same compound, the “Efficacy as analgesic (Morphine = 100)” value ([3]; 10 mg/kg i.p.) was 110, the percent inhibition ([3]; 10 mg/kg i.p.) was 81.6% and the “Efficacy as analgesic (Morphine = 100)” value ([3]; 175 mg/kg i.p.) was 133. The percent inhibition ([3]; 175 mg/kg i.p.) was 99.1%, the “activity in paw-pressure test, in words” value (rat paw-pressure test) was “almost equivalent analgesia” and the paw-pressure (rat paw-pressure test; [16]) was 59.3 ± 5.6 g. The paw-pressure (rat paw-pressure test; [17]) was 97.4 ± 6.2 g and the paw-pressure (rat paw-pressure test; [18]) was 74.6 ± 5.8 g.
